Read-outs that look alike come from different tables or passages of the source. Marks after values point to notes of the source that are not given here.
What was measured:
[1] = dog, in vivo
Male beagle dogs [2] = settings: dog, in vivo
in vivo [3] = settings: male, beagle, dog, iv, 0.1 mg/kg
Male beagle dogs [4] = settings: dog, in vivo; remark: listed apart in the source
in vivo [5] = settings: male, beagle, dog, 10 ug
[6] = dog, in vivo; remark: listed apart in the source
[7] = in vivo; cited from earlier work
Male beagle dogs [8] = settings: dog, in vivo; remark: listed apart in the source
Male beagle dogs [9] = settings: dog, in vivo, iv, 0.1 mg/kg
[10] = dog, in vivo; remark: listed apart in the source
in vivo [11] = settings: beagle, dog
[12] = in vivo; cited from earlier work; remark: listed apart in the source

CSCC[C@@H]1NC(=O)[C@H](CC(C)C)NC(=O)[C@H](CCCNC(=N)N)NC(=O)[C@H](CO)NC(=O)[C@@H]2CSSC[C@@H]3NC(=O)[C@H](CO)NC(=O)CNC(=O)[C@H]([C@@H](C)O)NC(=O)[C@H](CSSC[C@H](N)C(=O)N[C@@H](CCCCN)C(=O)NCC(=O)N[C@@H](CCCCN)C(=O)NCC(=O)N[C@@H](C)C(=O)N[C@@H](CCCCN)C(=O)N2)NC(=O)[C@H](CSSC[C@@H](C(N)=O)NC(=O)[C@H](CCCCN)NC(=O)CNC(=O)[C@H](CO)NC(=O)[C@H](CCCNC(=N)N)NC3=O)NC(=O)[C@H](CC(=O)O)NC(=O)[C@H](Cc2ccc(O)cc2)NC1=O [Ziconotide]
CSF : plasma ratio [1]: approximately 20,000: 1
Time of peak concentration in LCSF [1]: ≤ 3 min
Vz/F [1]: 12932 – 33328^b mL
Blood pressure and heart rate effect (Male beagle dogs [2]): modest decline in mean, diastolic, and systolic pressures and a mild tachycardia
Effect upon blood pressure (Male beagle dogs [2]): no effect upon blood pressure
Effect upon mean, diastolic, and systolic blood pressures (Male beagle dogs [2]): prominent reduction that persisted for the remainder of the infusion
Duration of fall in blood pressures (Male beagle dogs [2]; iv, 0.1 mg/kg): > 8 h
Effect upon heart rate (Male beagle dogs [2]; iv, 0.1 mg/kg): corresponding tachycardia
Fall in mean, diastolic, and systolic pressures (Male beagle dogs [2]; iv, 0.1 mg/kg): approximately 40 mmHg
Cmax (in vivo [3]): ~900 ng/mL
Body temperature versus baseline (Male beagle dogs [4]): not different from pretreatment baseline measurements
Time for elevated temperatures to return to baseline (Male beagle dogs [4]): 24 to 72 h
Body temperature versus baseline (Male beagle dogs [4]; iv): not different from pretreatment baseline measurements
CL/F (in vivo [5]): 196 mL/min
Vd/F (in vivo [5]): 17.2 L
AUC(0-inf) (in vivo [5]; AUC∞): 0.85 ng·h/mL
bioavailability (in vivo [5]; iv): 53.5%
LCSF: cisternal ratio at steady state [6]: ~1: 0.02
Plasma concentration relative to that in the cisterna [6]: approximately 0.1 times
Ratio of LCSF concentrations at infusion doses 1 and 5 µg/hr [6]: approximately 1: 4
Terminal elimination T1/2 after termination of continuous infusion [6]: 2.47 h
Time to peak plasma level [6]: ≤ 8 h
Plasma concentration at steady state, 8–48 hr group mean ([6]; male, beagle, 5 ug/hr): 1.12 ng/mL
Median LCSF half-life [7]: 4.5 h
Volume of distribution [7]: 99 mL
Arousal, muscle tone, and coordination (Male beagle dogs [8]): not affected
Diarrhea, dogs affected (Male beagle dogs [8]): 3 of the 5
Severity of whole body trembling and ataxia (Male beagle dogs [8]): tendency for this to increase in severity
Whole body trembling, dogs affected (Male beagle dogs [8]): 3 of the 5
Persistence of observed effects (Male beagle dogs [8]; iv, 0.1 mg/kg): absent 24 hr post injection
Scleral vasodilation and facial erythema, dogs affected (Male beagle dogs [8]; iv, 0.1 mg/kg): 2 of the 5
Vomiting, dogs affected (Male beagle dogs [8]; iv, 0.1 mg/kg): 4 of the 5
Respiratory rates (Male beagle dogs [9]): moderate decrease in respiratory rates for approximately 3 hr post injection
Elimination T1/2 in CSF following IV injection [10]: 1.64 h
Elimination T1/2 in plasma following IV injection [10]: 0.75 h
Elimination half life after bolus IV delivery [10]: 1.6 h
FCSF (absolute bioavailability in CSF after bolus IV) [10]: 0.013%
CL/F (in vivo [11]; CL/F (infusion rate divided by steady-state concentration)): 134 mL/min
level at 48 h (in vivo [11]; male, 5 ug/hr): 13.5 ng/mL
Diffusion of the peptide in rat brain parenchyma [12]: less than 1 mm

— publication PMC3514653 (Neuromodulation : journal of the International …, 2012)
